Measurements taken from the CheMixHub ionic liquid set.
± gives the uncertainty stated by the source.

Assay: xn = mol fraction of the nth substance listed

CCCC[n+]1ccn(C)c1.F[B-](F)(F)F + O + NCCO
100 kPa, x1 = 0.2723, x2 = 0.2627
Settings	viscosity [mPa·s]
303 K	16.89 ± 0.37
308 K	13.81 ± 0.3
318 K	9.78 ± 0.21
323 K	8.34 ± 0.18

CCCCCCCCn1cc[n+](C)c1.O=S(=O)([N-]S(=O)(=O)C(F)(F)F)C(F)(F)F + O=C1CCCO1
100 kPa, frequency 0.005 MHz
Settings	electrical conductivity [S/m]
293.15 K, x2 = 0.5048	0.325 ± 0.01
298.15 K, x2 = 0	0.136 ± 0.004
298.15 K, x2 = 0.6963	0.703 ± 0.021
303.15 K, x2 = 0.9514	0.796 ± 0.026
308.15 K, x2 = 0	0.207 ± 0.006
313.15 K, x2 = 0.2993	0.401 ± 0.012
318.15 K, x2 = 0	0.307 ± 0.009
318.15 K, x2 = 0.0997	0.342 ± 0.01
318.15 K, x2 = 0.8999	1.5 ± 0.046
323.15 K, x2 = 0.2993	0.534 ± 0.016
323.15 K, x2 = 0.9514	1.03 ± 0.035

CCC[N+]1(C)CCCC1.O=S(=O)([N-]S(=O)(=O)C(F)(F)F)C(F)(F)F + O=C1CCCO1
101 kPa, frequency 0.0005 MHz
Settings	electrical conductivity [S/m]
278.15 K, x1 = 0.3874	0.573 ± 0.023
308.15 K, x1 = 0.1741	1.63 ± 0.065
328.15 K, x1 = 0.06566	1.63 ± 0.065
348.15 K, x1 = 0.1741	2.59 ± 0.1
348.15 K, x1 = 0.3874	2.27 ± 0.09
358.15 K, x1 = 0.06566	2.1 ± 0.084

101 kPa
Settings	viscosity [mPa·s]
278.15 K, x1 = 1	163.6 ± 7
288.15 K, x1 = 0.1741	5.49 ± 0.22
328.15 K, x1 = 0.1741	2.63 ± 0.11
338.15 K, x1 = 0.06566	1.491 ± 0.061
338.15 K, x1 = 0.1741	2.274 ± 0.092
348.15 K, x1 = 0.1741	1.993 ± 0.081
358.15 K, x1 = 0.1741	1.768 ± 0.072
358.15 K, x1 = 1	10.34 ± 0.42

CCC1COC(=O)O1 (centres undefined) + O=S(=O)([N-]S(=O)(=O)C(F)(F)F)C(F)(F)F.[Li+]
298.1 K, 100 kPa, x2 = 0.333
Settings	electrical conductivity [S/m]	viscosity [mPa·s]
–	0.02 ± 0.01	323 ± 20

CCC1COC(=O)O1 (centres undefined) + O=S(=O)([N-]S(=O)(=O)C(F)(F)F)C(F)(F)F.[Li+] + COC(=O)OC
298.15 K, 100 kPa
Settings	viscosity [mPa·s]
x2 = 0.333, x3 = 0	323 ± 20
x2 = 0.333, x3 = 0.3335	157 ± 7
x2 = 0.333, x3 = 0.5002	93.7 ± 3.4

CCCC[n+]1ccn(C)c1.F[B-](F)(F)F + OCC(F)(F)F
101 kPa, x2 = 0
Settings	viscosity [mPa·s]
278.15 K	360 ± 11
283.15 K	255 ± 7
288.15 K	186 ± 5
293.15 K	139 ± 3
298.15 K	106 ± 2
303.15 K	82.2 ± 1.7
308.15 K	65 ± 1.3
313.15 K	52.2 ± 1.1
318.15 K	42.6 ± 0.9
323.15 K	35.2 ± 0.7
328.15 K	29.5 ± 0.6
333.15 K	25 ± 0.5

CC[n+]1ccn(C)c1.N#C[N-]C#N + OCC(F)(F)F
100 kPa
Settings	viscosity [mPa·s]
298.15 K, x1 = 0.2936	4.06 ± 0.6
298.15 K, x1 = 0.3935	5.03 ± 0.6
303.15 K, x1 = 0.1031	2.18 ± 0.6
303.15 K, x1 = 0.5915	6.32 ± 0.6
308.15 K, x1 = 0.8915	8.72 ± 0.61
313.15 K, x1 = 1	8.86 ± 0.61
318.15 K, x1 = 0.1957	2.07 ± 0.6
318.15 K, x1 = 0.2936	2.62 ± 0.6
